# Experimental data: US4313943A, “7-Chloro-2,3-dihydro-5-phenyl-1-propargyl-1H-1,4-benzodiazepine-2-one, and a pharmaceutical composition thereof” (priority 1972, dated 1982)
# Values joined by “and” are separate entries in the source; they are usually repeats but may differ in a detail not shown here. Equal entries are not always repeated.
# What was measured:
# [1] = Reduction in motor activity between 60 and 90 minutes; type: in vivo; details: for Reduction in Motor Activity Between 60 and 90 Minutes: significance NS (comp. 1), 0.002 (comp. 4)
# [2] = Spontaneous mobility (Svenson and Thieme); type: in vivo; details: po; read-out: oral ED50 (depressing spontaneous mobility)
# Procedure: Spontaneous mobility in test animals was determined by the Svenson and Thieme procedure as published in Psychopharmacologia, Vol. 14, 1969, pages 157 et seq.
# [3] = Postural tonus in restrained animals; type: in vivo
# From the text: The final observations were concerned with the influence of the test compounds on postural tonus. Evaluationg postural tonus in the animals kept in restraint cages was somewhat difficult. It was possible to judge this aspect by pulling the hind quarters of the animals out of the cage and observing whether the animals was capable of returning spontaneously to its position inside the cage, which control animals were able to do immediately.
# [4] = Acute toxicity comparison (LD50, Litchfield and Wilcoxan); details: in vivo; Table 11; oral; species not given
# Procedure: Toxicity in test animals to the test compounds in terms of LD50 after oral and intraperitoneal administration was determined according to the procedure of Litchfield and Wilcoxan (1949) and the hypnotic effect on test animals was determined in accordance with the method of Janssen (1959).
# [5] = Rotarod test, equilibrium (Table 6); type: in vivo
# [6] = test system: posterior amygdaloid complex; assay: Amygdaloid after-discharge (stimulation of posterior amygdaloid complex); type: in vivo; details: 7.5 mg/kg intragastric; for Duration of Amygdaloid After-Discharge: individual animals
# Procedure: (§1) The test animals for this study were also prepared according to the technique described by Monnier and Gangloff (infra B, page 30) and the animals were kept in restraint cages in a relatively soundproof room.
# (§2) The activity of test compounds 1 and 4 was assessed in identical groups of test animals for each compound, with identical numbers of animals for hippocampal after-discharges and for amygdaloid after-discharges. A dose of 7.5 mg/kg of each test compound was adminstered by the intragastric route. In each animal, after-discharges were triggered every 45 minutes after the administration of a test compound.
# (§3) The stimulation consisted of a series of waves with a duration of 3 m sec., delivered at a frequency of 40 c/sec., with 5 seconds as the total duration of the stimulation. The shocks were delivered by a Neurovar neurostimulator (Alvar Electronic), coupled to a CRC cathode oscilloscope (type OC 343). Cerebral electric activity was recorded by REEGA MINI HUIT electroencephalograph (Alvar Electronic).
# [7] = Emotional conditioning response (CER) in rats (Brady, Skinner box); type: in vivo
# From the text: The method utilized that was published by Brady (1956) using a Skinner Box and a combination of a sound, a light and an electrical shock to produce anxiety in the test animals.
# The more an animal is anxious, the less important is the score. When a test compound is a powerful anxiolytic, the value of the score is proportional to the dosage.
# [8] = Conditioned avoidance response (shuttle box); type: in vivo; details: for Number of Conditioned Avoidance Responses: CMC 1% 16.7 ± 0.3
# Procedure: Conditioned avoidance response by trained animals in a conventional shuttle box procedure was determined after oral administration of Compounds 1 and 4.
# [9] = ECoG and sedation in test animals free to move; type: in vivo
# Procedure: Some test animals were kept in restraint cases placed in a relatively soundproof room and some were left free to move in metal cases measuring 40×50×30 cm, which were also kept in a relatively quiet environment.
# In the test animals which were free to move, the first signs of sedation produced by the intragastric administration of 7.5 mg/kg of compounds 1 and 4 appeared, respectively, at 16 minutes (compound 1) and at 8 minutes (compound 4). […] The duration of the effect was, however, shorter, not exceeding 3 hours under these conditions in contrast to the 5 hour minimum for restricted animals.
# dorsal hippocampus = assay: Hippocampal after-discharge (stimulation of dorsal hippocampus); type: in vivo; details: 7.5 mg/kg intragastric; for Duration of Hippocampal After-Discharge: individual animals
# Procedure: as §1, §2, §3
# [10] = Motor coordination in rats (rotarod, Dunham and Miya 1957)
# [11] = Effect on muscular relaxation in mice (30° inclined screen, Randall); type: in vivo
# Procedure: The method utilized was the procedure described by Randall (1961) using a 30° inclined screen.
# [12] = 7.5 mg/kg intragastric, animals free to move
structure (smiles),measurement,setting,value
"C#CCN1C(=O)CN=C(c2ccccc2Cl)c2cc(Cl)ccc21 [Compound 4, 7-chloro-2,3-dihydro-5-(2-chlorophenyl)-1-propargyl-1,H-1,4-benzodiazepine-2-one]",Reduction in Motor Activity Between 60 and 90 Minutes,[1]; 1 mg/kg,-69%
same,Reduction in Motor Activity Between 60 and 90 Minutes,[1]; 3 mg/kg,-82%
same,changes in motor activity / voluntary motility,[1]; in vivo,reduces voluntary motility
same,ED50,[2],20.1 mg/kg
same,animals with no attempt to resume previous posture,"[3]; 30 mg/kg, at 21/2 hours",one animal out of every three
same,reduction in postural tonus,[3]; more pronounced effect of compound 4 especially at 30 mg/kg,slightly more pronounced effect
same,LD50,[4],> 5000 mg/kg
same,Rotarod Test % of Animals With Unchanged Equilibrium,[5]; 1 mg/kg,50.0%
same,Rotarod Test % of Animals With Unchanged Equilibrium,[5]; 3 mg/kg,8.3%
same,changes in equilibrium / motor coordination,[5]; in vivo,degradation of motor coordination
same,effect on amygdaloid after-discharge,[6],lasting inhibitory effect
same,Duration of Amygdaloid After-Discharge,[6]; 45 Mins.,29 s and 43 s and 30 s and 35 s
same,Duration of Amygdaloid After-Discharge,[6]; 90 Mins.,32 s and 46 s and 33 s and 40 s and 16 s
same,Duration of Amygdaloid After-Discharge,[6]; 135 Mins.,35 s and 27 s and 40 s and 26 s
same,Duration of Amygdaloid After-Discharge,[6]; 180 Mins.,33 s and 29 s and 48 s
same,Duration of Amygdaloid After-Discharge,[6]; 225 Mins.,37 s and 35 s and 34 s and 41 s
same,Duration of Amygdaloid After-Discharge,[6]; 270 Mins.,38 s and 42 s and 37 s and 39 s and 50 s
same,"Number of Responses, After - CER",[7]; 1.25 mg/kg/os,86.43 ± 22.13
same,"Number of Responses, Before - CER",[7]; 1.25 mg/kg/os,81.28 ± 16.17
same,"Number of Responses, CER",[7]; 1.25 mg/kg/os,26.25 ± 4.57
same,"Number of Responses, After - CER",[7]; 2.5 mg/kg/os,79.75 ± 15.24
same,"Number of Responses, Before - CER",[7]; 2.5 mg/kg/os,66.75 ± 11.80
same,"Number of Responses, CER",[7]; 2.5 mg/kg/os,31.12 ± 6.54
same,"Number of Responses, After - CER",[7]; 5 mg/kg/os,79.00 ± 20.03
same,"Number of Responses, Before - CER",[7]; 5 mg/kg/os,65.00 ± 14.89
same,"Number of Responses, CER",[7]; 5 mg/kg/os,38.37 ± 8.76
same,% Decrease (conditioned avoidance responses),[8]; 5 mg/kg oral,-44%
same,Number of Conditioned Avoidance Responses,[8]; 5 mg/kg oral,9.2 ± 1.4
same,% Decrease (conditioned avoidance responses),[8]; 10 mg/kg oral,-85%
same,Number of Conditioned Avoidance Responses,[8]; 10 mg/kg oral,2.5 ± 1.5
same,duration of the ECoG effect,[9]; [12],≤ 3 h
same,first signs of sedation,[9]; [12],8 min
same,duration of ECoG effects (three compounds compared),"[9]; unrestricted animals, compound 3 at 10 mg/kg",about 31/2
same,effect on duration of hippocampal after-discharge,dorsal hippocampus,no apparent effect on the duration of the paroxysm
same,Duration of Hippocampal After-Discharge,dorsal hippocampus; 45 Mins.,10 s and 20 s and 18 s and 14 s and 12 s
same,Duration of Hippocampal After-Discharge,dorsal hippocampus; 90 Mins.,7 s and 16 s and 20 s and 15 s and 11 s
same,Duration of Hippocampal After-Discharge,dorsal hippocampus; 135 Mins.,6 s and 15 s and 17.5 s and 13.5 s and 14 s
same,Duration of Hippocampal After-Discharge,dorsal hippocampus; 180 Mins.,8 s and 10.5 s and 18 s and 15 s
same,Duration of Hippocampal After-Discharge,dorsal hippocampus; 225 Mins.,9 s and 19 s and 18.5 s and 13 s and 10 s
same,Duration of Hippocampal After-Discharge,dorsal hippocampus; 270 Mins.,10 s and 22 s and 27 s and 13 s and 16 s
same,% Uncoordinated Animals,[10]; 12 mg/kg/os,37.5%
same,% Uncoordinated Animals,[10]; 17 mg/kg/os,50%
same,% Uncoordinated Animals,[10]; 24 mg/kg/os,87.5%
same,Potency Against Comp. 1,"[10]; C.L. (3.09. 6.79), X^2 parallelism 0.005",4.58
same,TD50,"[10]; rat, rotarod, po",14.9 mg/kg
same,% Relaxed Animals,[11]; 2 mg/kg/os,40%
same,% Relaxed Animals,[11]; 8 mg/kg/os,60%
same,% Relaxed Animals,[11]; 32 mg/kg/os,80%
same,Potency Against Comp. 1,"[11]; C.L. (1.67-18.80), X^2 parallelism 2.03",5.60
same,ED50,"[11]; Mus musculus, po, muscular relaxation, read-out: ED50 (and C.L.)",3.93 mg/kg
